Data as given in patent US8466089B2, “Pyrazole compounds, process for their production and herbicides containing them” (Ishihara Sangyo Kaisha, Ltd., priority 2008, dated 2013).

Legend:
Type in all cases: in vivo
[1] = test system: barnyardgrass (Echinochloa oryzicola vasing.); experiment: Test Example 3, paddy field pot, application to irrigated water; details: applied at 0.5 leaf stage, 13th to 17th day after application, read-out: Growth inhibition rate (%) barnyard grass
Outline: (§1)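 Weeds were sown or planted in flooded paddy-soil pots and treated in the water at 0.5-leaf or primary-leaf stage. Rice (Nihonbare), transplanted at two-leaf stage 3 cm deep, was treated on day 4. Diluted wettable powder or emulsifiable concentrate was used, and growth inhibition (0–100%) was scored visually at 13–17 days for weeds and 20–23 days for rice.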

[2] = test system: Japanese bulrush (Scirpus juncoides); experiment: as above; details: Schoenoplectiella juncoides, applied at 0.5 leaf stage, 13th to 17th day after application, read-out: Growth inhibition rate (%) Japanese bulrush
Outline: as §1

[3] = test system: Japanese ribbon waparo (Sagittaria pygmaea); experiment: as above; details: applied at primary leaf stage, 13th to 17th day after application, read-out: Growth inhibition rate (%) Japanese ribbon waparo
Outline: as §1

[4] = test system: rice (Oryza sativa L.) (var.: Nihonbare); experiment: Test Example 3, paddy field pot, transplanted rice; details: applied 4th day after transplantation, 20th to 23rd day after application, read-out: Growth inhibition rate (%) Rice
Outline: as §1

[5] = test system: velvetleaf (Abutilon theophrasti MEDIC.); experiment: Test Example 1, foliar treatment in upland pots; details: 20th to 22nd day after application, visual, read-out: Growth inhibition rate (%) Velvetleaf
[6] = test system: crabgrass (Digitaria sanguinalis L.); experiment: Test Example 1, foliar treatment in upland pots; details: 20th to 22nd day after application, visual, read-out: Growth inhibition rate (%) Crabgrass
rice (Oryza sativa L.) [7] = experiment: Test Example 1, foliar treatment in upland pots; details: 20th to 22nd day after application, visual, read-out: Growth inhibition rate (%) Rice
Outline: (§2)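 Post-emergence foliar spray at defined leaf stages (corn 2.0 to 3.3, soybean primary leaf to 0.3, green foxtail 1.5 to 3.0, rice 1.2 to 2.5), in water at 500 liter per hectare with 0.1 vol % spreader. Visual growth inhibition 0–100% rated on day 20 to 22.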

[8] = test system: green foxtail (Setaria viridis L.); experiment: Test Example 1, foliar treatment in upland pots; details: 20th to 22nd day after application, visual, read-out: Growth inhibition rate (%) Green foxtail
Outline: as §2

[9] = test system: redroot pigweed (Amaranthus retroflexus L.); experiment: Test Example 1, foliar treatment in upland pots; details: 20th to 22nd day after application, visual, read-out: Growth inhibition rate (%) Redroot pigweed
corn (Zea mays L.) [10] = experiment: Test Example 1, foliar treatment in upland pots; details: 20th to 22nd day after application, visual, read-out: Growth inhibition rate (%) Corn
Outline: as §2

[11] = test system: barnyardgrass (Echinochloa crus-galli L.); experiment: Test Example 1, foliar treatment in upland pots; details: 20th to 22nd day after application, visual, read-out: Growth inhibition rate (%) Barnyardgrass
rice (Oryza sativa L.) [12] = experiment: Test Example 2, soil application on the day after sowing; details: 21st to 22nd day after application, visual, read-out: Growth inhibition rate (%) Rice
Outline: (§3)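 Upland soil pots were sown with seeds, and on the following day test formulations were sprayed onto the soil at the prescribed active-ingredient rates in water equivalent to 500 liter/hectare. Growth inhibition (0% = untreated, 100% = complete kill) was scored visually 21-22 days after application.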

wheat (Triticum spp.) = experiment: as above; details: 21st to 22nd day after application, visual, read-out: Growth inhibition rate (%) Wheat
Outline: as §3

corn (Zea mays L.) [13] = experiment: as above; details: 21st to 22nd day after application, visual, read-out: Growth inhibition rate (%) Corn
Outline: as §3

Row | SMILES | inhibition at 63 g/ha [1] [%] | inhibition at 63 g/ha [2] [%] | inhibition at 63 g/ha [3] [%] | inhibition at 63 g/ha [4] [%] | inhibition at 7 g/ha [5] [%] | inhibition at 7 g/ha [6] [%] | inhibition at 7 g/ha (rice (Oryza sativa L.) [7]) [%] | inhibition at 7 g/ha [8] [%] | inhibition at 7 g/ha [9] [%] | inhibition at 7 g/ha (corn (Zea mays L.) [10]) [%] | inhibition at 7 g/ha [11] [%] | inhibition at 250 g/ha (rice (Oryza sativa L.) [12]) [%] | inhibition at 250 g/ha (wheat (Triticum spp.)) [%] | inhibition at 250 g/ha (corn (Zea mays L.) [13]) [%]
1 | CCCn1ncc(C(=O)c2ccc(S(C)(=O)=O)c(OCCOC)c2C)c1OC(C)OC(=O)OCC (centres unmarked) [Compound No. 3-1, Ethyl 1-(1-n-propyl-4-(3-(2-methoxyethoxy)-2-methyl-4-(methylsulfonyl)benzoyl)-1H-pyrazol-5-yloxy)ethyl carbonate] | 100 | 90 | 95 | 30 | 60 | 70 | 0 | 30 | 80 | 0 | 70 | 20 | 10 | 0
2 | COCCOc1c(S(C)(=O)=O)ccc(C(=O)c2c(C)nn(C)c2OC(C)OC(=O)OC)c1C (centres unmarked) [Compound No. 1-6, 1-(4-(3-(2-Methoxyethoxy)-2-methyl-4-(methylsulfonyl)benzoyl)-1,3-dimethyl-1H-pyrazol-5-yloxy)ethyl methyl carbonate] | 100 | 70 | 60 | 30 | 98 | 90 | 70 | 95 | 90 | 0 | 90 | 98 | 5 | 0
3 | COCCOc1c(S(C)(=O)=O)ccc(C(=O)c2cnn(C(C)C)c2O)c1C [Compound No. 8-1, (5-Hydroxy-1-isopropyl-1H-pyrazol-4-yl)(3-(2-methoxyethoxy)-2-methyl-4-(methylsulfonyl)phenyl)ketone] | 95 | 95 | 95 | 60 | 80 | 95 | 10 | 90 | 90 | 0 | 60 | 80 | 0 | 0
4 | Cc1c(C(=O)c2cnn(C)c2O)ccc(S(C)(=O)=O)c1OCCC(C)C [Compound No. 5-1, (5-Hydroxy-1-methyl-1H-pyrazol-4-yl)(3-(2-isopropylethoxy)-2-methyl-4-(methylsulfonyl)phenyl)ketone] | 60 | 20 | 95 | 30 | 10 | 50 | 0 | 50 | 60 | 0 | 30 | 98 | 20 | 10
